What was measured:
Mas receptor = target: T1, Mas receptor (Homo sapiens, UniProt P04201); settings: Dilda et al. 2019; cited from earlier work
T1 sequence (P04201 1-325): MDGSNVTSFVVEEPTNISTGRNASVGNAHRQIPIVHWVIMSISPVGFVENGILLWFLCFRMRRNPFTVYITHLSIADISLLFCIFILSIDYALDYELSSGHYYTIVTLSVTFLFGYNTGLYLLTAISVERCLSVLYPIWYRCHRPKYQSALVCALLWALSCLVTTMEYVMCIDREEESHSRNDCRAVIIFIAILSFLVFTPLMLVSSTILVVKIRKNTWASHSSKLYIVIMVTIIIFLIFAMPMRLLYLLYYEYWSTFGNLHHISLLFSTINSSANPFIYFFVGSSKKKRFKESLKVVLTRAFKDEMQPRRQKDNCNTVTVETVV

[1] = test system: mouse model of acute lung injury (ALI); settings: Xia et al. 2016, Song et al. 2019; cited from earlier work
[2] = test system: hypertensive type SH (spontaneously hypertensive) rats; experiment: Mean arterial pressure by telemetry in spontaneously hypertensive rats, single oral administration; type: in vivo, rat; settings: Enalapril 50 mg/kg
Method: The effects of BIO101 alone were evaluated after a single oral administration. Six SH rats were used in crossover treatments with an elimination period of a minimum of 72 hours between treatments. Prior to the treatment, the animals were equipped with telemetry instruments for measuring arterial pressure. For the experiment described in FIG. 2A the animals received the following treatments: vehicle, either BIO101 at 5 mg/kg, or BIO101 at 50 mg/kg, or Enalapril at 50 mg/kg.
The inventors tested the phytoecdysones and more particularly BIO101 on the mean arterial pressure by telemetry, in hypertensive animals after oral administration at the doses of 5 and 50 mg/kg. The study relates to hypertensive type SH (spontaneously hypertensive) rats.
BIO101 therefore has no anti-hypertensive effect.

Row | SMILES | activity on Mas receptor (Mas receptor) | anti-inflammatory cytokines (IL-4, IL-10) [1] | lung injuries (histological examination) [1] | plasmatic inflammatory cytokines (TNF-α, IL-2, IL-6, IL-8) [1] | anti-hypertensive activity (mean arterial pressure) [2]
1 | CC(C)(O)CC[C@@H](O)[C@](C)(O)[C@H]1CC[C@@]2(O)C3=CC(=O)[C@@H]4C[C@@H](O)[C@@H](O)C[C@]4(C)[C@H]3CC[C@]12C [20-hydroxyecdysone] | activates | increased | reduction in lung injuries | reduced | 
2 | CCOC(=O)[C@H](CCc1ccccc1)N[C@@H](C)C(=O)N1CCC[C@H]1C(=O)O [Enalapril] |  |  |  |  | has an anti-hypertensive activity

From patent US12551495B2, “Phytoecdysones and derivatives thereof for use in treating disordered respiratory function on viral infection” (priority 2020, dated 2026)
